The record followed here is patent US10265321B2, “Uses of salt-inducible kinase (SIK) inhibitors” (Dana-Farber Cancer Institute, Inc., priority 2014, dated 2019).

In experiment [1] the test system is BMDCs. The experiment can be described thus: Cytokine (cytometric bead array) and NO (Greiss) production by stimulated BMDCs. The class given is cell-based, mouse. The method, then:
(§1) Bone marrow-derived DCs were differentiated from C57BL/6 bone marrow in the presence of GM-CSF-conditioned media. CD11c^+ CX3CR1^hi myeloid cells and CD11c^+ CX3CR1^− DCs were isolated from the small intestine lamina propria of Cx3cr1^eGFP/+ mice (12). Detection of cell-surface Thy1.1 expression on BMDCs from 10BiT reporter mice was conducted as described previously (24). Cell viability was estimated by change in total cellular ATP levels using CellTiterGlo assays (Promega). Preparation of recombinant SIK proteins and IC50 measurements were conducted as described previously (21). Total RNA was extracted using a NucleoSpin 96 RNA isolation kit (Macherey-Nagel) followed by cDNA synthesis and multiplex RT-PCR using a microfluidic dynamic array (Fluidigm). The concentrations of TNF-α, IL-6, IL-10, IL-12p40, IL-1β and RANTES in culture supernatants were detected using a FlexSet Cytometric bead array (BD Biosciences). Alternatively, IL-10 secretion was quantified using ELISA (BD Biosciences) or AlphaLISA (PerkinElmer) assays. NO production was estimated based on nitrate content in culture medium using the Greiss reagent.
(§2) C57BL/6 mice were euthanized and bone marrow harvested from femurs and tibias as described previously (Graham D B, et al. (2007) An ITAM-signaling pathway controls cross-presentation of particulate but not soluble antigens in dendritic cells. The Journal of experimental medicine 204(12):2889-2897). BMDCs were differentiated DMEM supplemented with 2 mM GlutaMAX, 10% (vol/vol) FBS, penicillin, streptomycin and 2% mouse GM-CSF conditioned media derived from TOPO cells. Cultures were differentiated for 7 days and routinely analyzed for >90% CD11c (APC anti-CD11c clone HL3; BD Biosciences) positivity by flow cytometry before use in experiments. Lentiviral transduction of bone marrow cultures was conducted by addition of 293T culture supernatants containing lentiviral particles encoding the CREB dependent luciferase reporter construct or CRTC3 targeting or control shRNAs one day post-isolation. Stable integration of lentiviral shRNA constructs was selected by addition of puromycin (3 μg/mL) on day 4 post-transduction. After 2 days, stably transduced BMDCs were released from selection and used in subsequent assays. Unless otherwise indicated, cells were treated for 2 days with PGE2 (5 μM) or HG-9-91-01 (0.5 μM) or an equivalent concentration of DMSO (≤0.5%) and then stimulated for 18 hr with LPS (100 ng/mL), R848 (10 μg/mL) or zymosan (4 μg/mL).
After stimulation of cells with microbial ligands, the culture medium was removed, clarified by centrifugation for 10 min at 14,000×g, and the concentration of TNF-α, IL-6, IL-10, IL-12p40, IL-1β and RANTES were measured using FlexSet Cytokine Bead Array (BD Biosciences) according to the manufacturer's instructions. Where indicated, ELISAs were used to detect IL-10 and IL-12p70 (BD Biosciences) according to the manufacturer's instructions. NO production was estimated based on nitrate content in culture medium using the Greiss reagent as described previously (Miletic A V, et al. (2007) Vav proteins control MyD88-dependent oxidative burst. Blood 109(8):3360-3368).

For experiment [2], the system named is BMDCs. As to the kind of experiment: Multiplex qPCR of transcripts in stimulated BMDCs. The class given is cell-based, mouse. The note with it: 2 days pre-treatment, 4 hr LPS, R848 or zymosan. On the procedure: as §1
as §2, with “Unless otherwise indicated, cells were treated for 2 days with PGE2 (5 μM) or HG-9-91-01 (0.5 μM) or an equivalent concentration of DMSO (≤0.5%) and then stimulated for 18 hr with LPS (100 ng/mL), R848 (10 μg/mL) or zymosan (4 μg/mL).” left out
Total RNA was extracted using a NucleoSpin 96 RNA isolation kit (Macherey-Nagel). […] Relative gene expression was calculated from Ct values and normalized against ACTB mRNA levels as described previously (Pfaffl MW (2001) A new mathematical model for relative quantification in real-time RT-PCR. Nucleic acids research 29(9):e45). […]
For orientation: Real-time PCR tracks product formation cycle by cycle.

The test system of the next experiment is human MΦs or DCs. The experiment can be described thus: Cytokine production by human macrophages and dendritic cells from PBMCs (ELISA). Particulars: 0.5 μM, 24 hr, zymosan 18 hr. The class given is cell-based. The method, then:
Heparinized blood from healthy donors was obtained from Research Blood Components. Peripheral blood mononuclear cells (PBMCs) were obtained by density centrifugation of blood diluted 50% (vol/vol) with PBS over Ficoll-Paque (Pharmacia Biotech). PBMCs were further purified by plastic adherence for 1 hr and washed 5× with PBS. Monocytes within the PBMC pool were differentiated towards DCs in X-VIVO media (Lonza) supplemented with IL-4 (50 ng/mL, R&D Systems) and GM-CSF (50 ng/mL, R&D Systems) or macrophages in X-VIVO media supplemented with GM-CSF (5 ng/mL) and IFN-γ (5 ng/mL; PeproTech) for 7 days as described previously (Smeekens S P, et al. (2013) Functional genomics identifies type I interferon pathway as central for host defense against Candida albicans. Nature communications 4:1342). After third day, half of the culture medium was replaced by fresh DC/macrophages differentiation medium.
After stimulation of cells with microbial ligands, the culture medium was removed, clarified by centrifugation for 10 min at 14,000×g, and the concentration of TNF-α, IL-6, IL-10, IL-12p40, IL-1β and RANTES were measured using FlexSet Cytokine Bead Array (BD Biosciences) according to the manufacturer's instructions. Where indicated, ELISAs were used to detect IL-10 and IL-12p70 (BD Biosciences) according to the manufacturer's instructions. […]
On the technique in general: ELISA stands for enzyme-linked immunosorbent assay.

Consider `COc1ccc(N(C(=O)Nc2c(C)cccc2C)c2cc(Nc3ccc(N4CCN(C)CC4)cc3)ncn2)c(OC)c1` [HG-9-91-01], for which, in the experiment on BMDCs [1] (BMDCs pre-treated, LPS, R848 or zymosan 18 hr), the IL-10 secretion result is given as “similarly induced”. The IL-1β production entry in the experiment on BMDCs [1] (BMDCs, stimulation with R848 or zymosan) was “suppressed”. Also, the “production of IL-12p40 and TNF-α” value in the experiment with BMDCs [1] (BMDCs, versus PGE2, regardless of activating stimuli) was “suppressed to a significantly greater extent”. Besides, in the experiment with BMDCs [2], the “IL-10 mRNA levels” value was “robustly enhanced”; the “abundance of Arg1 and Nos2 transcripts” value is “significantly blunted”. Further, in the experiment with human MΦs or DCs, the “IL-10 production by human MΦs or DCs” value is given as “enhanced IL-10 production” and the “IL-12p70 secretion by human MΦs or DCs” value is given as “dramatically reducing IL-12p70 secretion”.
